# Measured values reported in ChEMBL document CHEMBL1151388, “Isolation and Structure of 14,15-Epoxyprieurianin From the South American Tree Guarea guidona” (1982).
# Activity calls are given as the source filed them. The rule behind the calls is not given here.
# How the values were obtained:
# [1] = test system: P388; test: Cytotoxicity against mouse P388 cells; assay type: functional; conditions: for EC50: read-out: ED50 (the source's name)
# [2] = test system: P388; test: In vivo cytotoxicity against mouse P388 cells up to 8 mg/kg; assay type: functional, organism-based; set-up: dose 8 mg/kg
Compound,Activity [1],EC50 [1] [µg/mL],Activity [2]
CC1(C)C(=O)C=C[C@]2(C)[C@H]3CC[C@@]4(C)[C@H](c5ccoc5)OC(=O)[C@H]5O[C@]54[C@]3(C)C(=O)C[C@@H]12,inactive,–,–
C=C1[C@@H]([C@@]2(C)[C@@H](OC(C)=O)CC(=O)O[C@](C)(COC(C)=O)[C@@H]2C(=O)OC)[C@@H](OC=O)[C@H](OC(=O)[C@H](O)[C@H](C)CC)[C@@]2(C)[C@H](c3ccoc3)CC(=O)[C@]12O [PRIEURIANIN],–,4.4,inactive
C=C1[C@H]([C@]2(C)[C@@H](OC(C)=O)CC(=O)O[C@](C)(COC(C)=O)[C@@H]2CC(=O)OC)[C@@H](OC=O)[C@H](OC(=O)[C@H](O)[C@H](C)CC)[C@]2(C)[C@@H](c3ccoc3)C[C@@H]3O[C@]132,–,0.47,–
